Patent US11766044B2, “Method for controlling PPO resistant weeds” (BASF SE, priority 2016, dated 2023)

Tested on: sensitive (w.7) and resistant weeds (w.8, w.9)
Type: in vivo, Amaranthus tuberculatus
Settings: table 3, 1 and 2 g/ha

CCOC(=O)COc1ncccc1Oc1cc(-n2c(=O)cc(C(F)(F)F)n(C)c2=O)c(F)cc1Cl [compound (I).1]
activity on both sensitive and resistant weeds: very good activity
